Assays:
[1] = system: Oryza sativa, (L.) Tebonnet; assay: Rice tolerance to post-transplant applications under flooded paddy conditions (Example 187), ORYSAT (Rice, Tebonnet); conditions: rated three to four weeks after treatment
[2] = system: Monochoria vaginalis, Presl.; assay: Preemergence weed control under flooded paddy conditions, MOOVA (Monochoria); type: in vivo; conditions: flooded paddy, rated three to four weeks after treatment; for MOOVA herbicidal rating / MOOVA herbicidal effect rating: preemergence; for herbicidal effect rating, MOOVA: preemergence weeds; for herbicidal effect rating, MOOVA: meaning of each grade not given here
Cyperus iria = assay: Preemergence weed control under flooded paddy conditions, CYPIR (Rice Flatsedge); type: in vivo; conditions: flooded paddy, rated three to four weeks after treatment; for CYPIR herbicidal rating / CYPIR herbicidal effect rating: preemergence; for herbicidal effect rating, CYPIR: preemergence weeds; for herbicidal effect rating, CYPIR: meaning of each grade not given here
[3] = system: Cyperus serotinus, Rottb.; assay: Preemergence weed control under flooded paddy conditions, CYPSE (Flatsedge); type: in vivo; conditions: rated three to four weeks after treatment; for CYPSE herbicidal rating / CYPSE herbicidal effect rating: preemergence; for herbicidal effect rating, CYPSE: preemergence weeds; for herbicidal effect rating, CYPSE: meaning of each grade not given here
[4] = system: Echinochloa oryzoides (Ard.) Fritsch.; assay: Preemergence weed control under flooded paddy conditions, ECHORC (Watergrass (Calif.)); type: in vivo; conditions: flooded paddy, rated three to four weeks after treatment; for ECHORC herbicidal rating / ECHORC herbicidal effect rating: preemergence; for herbicidal effect rating, ECHORC: preemergence weeds; for herbicidal effect rating, ECHORC: meaning of each grade not given here
Sagittaria pygmaea, L. = assay: Preemergence weed control under flooded paddy conditions, SAGPY (Arrowhead (Pygmaea)); type: in vivo; conditions: flooded paddy, rated three to four weeks after treatment; for SAGPY herbicidal rating / SAGPY herbicidal effect rating: preemergence; for herbicidal effect rating, SAGPY: preemergence weeds; for herbicidal effect rating, SAGPY: meaning of each grade not given here

Cn1c(C(F)(F)F)cc(=O)n(-c2ccc3snc(C(=O)NS(N)(=O)=O)c3c2)c1=O [Example 472, 1,2-Benzisothiazole-3-carboxamide, 5-[3,6-dihydro-3-methyl-2,6-dioxo-4-(trifluoromethyl)-1(2H)-pyrimidinyl]-N-sulfamoyl-]
ORYSAT herbicidal rating (rice tolerance) ([1]; 0.0320 kg/ha): 0.0
ORYSAT herbicidal rating (rice tolerance) ([1]; 0.0620 kg/ha): 1.0
ORYSAT herbicidal rating (rice tolerance) ([1]; 0.1250 kg/ha): 3.0
ORYSAT herbicidal rating (rice tolerance) ([1]; 0.2500 kg/ha): 6.0
MOOVA herbicidal rating ([2]; 0.0320 kg/ha): 5.0
MOOVA herbicidal rating ([2]; 0.0620 kg/ha): 6.0
MOOVA herbicidal rating ([2]; 0.1250 kg/ha): 7.0
MOOVA herbicidal rating ([2]; 0.2500 kg/ha): 7.0
CYPIR herbicidal rating (Cyperus iria; 0.0320 kg/ha): 4.0
CYPIR herbicidal rating (Cyperus iria; 0.0620 kg/ha): 4.0
CYPIR herbicidal rating (Cyperus iria; 0.1250 kg/ha): 5.0
CYPIR herbicidal rating (Cyperus iria; 0.2500 kg/ha): 6.0
CYPSE herbicidal rating ([3]; 0.0320 kg/ha): 0.0
CYPSE herbicidal rating ([3]; 0.1250 kg/ha): 6.0
CYPSE herbicidal rating ([3]; 0.2500 kg/ha): 9.0
ECHORC herbicidal rating ([4]; 0.0320 kg/ha): 3.0
ECHORC herbicidal rating ([4]; 0.0620 kg/ha): 3.0
ECHORC herbicidal rating ([4]; 0.1250 kg/ha): 4.0
ECHORC herbicidal rating ([4]; 0.2500 kg/ha): 4.0
SAGPY herbicidal rating (Sagittaria pygmaea, L.; 0.0320 kg/ha): 0.0
SAGPY herbicidal rating (Sagittaria pygmaea, L.; 0.0620 kg/ha): 0.0
SAGPY herbicidal rating (Sagittaria pygmaea, L.; 0.1250 kg/ha): 2.0
SAGPY herbicidal rating (Sagittaria pygmaea, L.; 0.2500 kg/ha): 3.0

C[C@H](Br)[C@H](Br)c1nsc2ccc(-n3c(=O)cc(C(F)(F)F)n(C)c3=O)cc12 [Example 302, 2,4(1H,3H)-Pyrimidinedione, 3-[3-(1,2-dibromopropyl)-1,2-benzisothiazol-5-yl]-1-methyl-6-(trifluoromethyl)-, (1R,2S)-]
herbicidal effect rating ORYSAT ([1]; Rate 0.0320 kg/ha): 1.0
herbicidal effect rating ORYSAT ([1]; Rate 0.0620 kg/ha): 4.5
herbicidal effect rating ORYSAT ([1]; Rate 0.1250 kg/ha): 7.0
herbicidal effect rating ORYSAT ([1]; Rate 0.2500 kg/ha): 8.0
herbicidal effect rating, MOOVA ([2]; Rate 0.0320 kg/ha): 7.0
herbicidal effect rating, MOOVA ([2]; Rate 0.0620 kg/ha): 7.0
herbicidal effect rating, MOOVA ([2]; Rate 0.1250 kg/ha): 9.0
herbicidal effect rating, MOOVA ([2]; Rate 0.2500 kg/ha): 9.0
herbicidal effect rating, CYPIR (Cyperus iria; Rate 0.0320 kg/ha): 8.0
herbicidal effect rating, CYPIR (Cyperus iria; Rate 0.0620 kg/ha): 8.0
herbicidal effect rating, CYPIR (Cyperus iria; Rate 0.1250 kg/ha): 8.5
herbicidal effect rating, CYPIR (Cyperus iria; Rate 0.2500 kg/ha): 8.5
herbicidal effect rating, CYPSE ([3]; Rate 0.0320 kg/ha): 4.5
herbicidal effect rating, CYPSE ([3]; Rate 0.0620 kg/ha): 4.5
herbicidal effect rating, CYPSE ([3]; Rate 0.1250 kg/ha): 4.5
herbicidal effect rating, CYPSE ([3]; Rate 0.2500 kg/ha): 6.0
herbicidal effect rating, ECHORC ([4]; Rate 0.0320 kg/ha): 4.0
herbicidal effect rating, ECHORC ([4]; Rate 0.0620 kg/ha): 5.0
herbicidal effect rating, ECHORC ([4]; Rate 0.1250 kg/ha): 8.0
herbicidal effect rating, ECHORC ([4]; Rate 0.2500 kg/ha): 8.5
herbicidal effect rating, SAGPY (Sagittaria pygmaea, L.; Rate 0.0320 kg/ha): 0.0
herbicidal effect rating, SAGPY (Sagittaria pygmaea, L.; Rate 0.0620 kg/ha): 0.0
herbicidal effect rating, SAGPY (Sagittaria pygmaea, L.; Rate 0.1250 kg/ha): 9.0
herbicidal effect rating, SAGPY (Sagittaria pygmaea, L.; Rate 0.2500 kg/ha): 9.0

Cc1nsc2ccc(-n3c(=O)cc(C(F)(F)F)n(Cc4ccccc4)c3=O)cc12 [Example 218, 1-Benzyl-3-(3-methyl-1,2-benzisothiazol-5-yl)-6-(trifluoromethyl)-2,4(1H,3H)-pyrimidinedione]
ORYSAT herbicidal effect rating ([1]; Rate 0.0313 kg/ha): 1.0
ORYSAT herbicidal effect rating ([1]; Rate 0.0625 kg/ha): 2.0
ORYSAT herbicidal effect rating ([1]; Rate 0.1250 kg/ha): 3.0
ORYSAT herbicidal effect rating ([1]; Rate 0.2500 kg/ha): 3.0
MOOVA herbicidal effect rating ([2]; Rate 0.0313 kg/ha): 8.0
MOOVA herbicidal effect rating ([2]; Rate 0.0625 kg/ha): 9.0
MOOVA herbicidal effect rating ([2]; Rate 0.1250 kg/ha): 9.0
MOOVA herbicidal effect rating ([2]; Rate 0.2500 kg/ha): 9.0
CYPIR herbicidal effect rating (Cyperus iria; Rate 0.0313 kg/ha): 0.0
CYPIR herbicidal effect rating (Cyperus iria; Rate 0.0625 kg/ha): 0.0
CYPIR herbicidal effect rating (Cyperus iria; Rate 0.1250 kg/ha): 0.0
CYPIR herbicidal effect rating (Cyperus iria; Rate 0.2500 kg/ha): 0.0
CYPSE herbicidal effect rating ([3]; Rate 0.0313 kg/ha): 0.0
CYPSE herbicidal effect rating ([3]; Rate 0.0625 kg/ha): 0.0
CYPSE herbicidal effect rating ([3]; Rate 0.1250 kg/ha): 0.0
CYPSE herbicidal effect rating ([3]; Rate 0.2500 kg/ha): 0.0
ECHORC herbicidal effect rating ([4]; Rate 0.0313 kg/ha): 0.0
ECHORC herbicidal effect rating ([4]; Rate 0.0625 kg/ha): 0.0
ECHORC herbicidal effect rating ([4]; Rate 0.1250 kg/ha): 2.0
ECHORC herbicidal effect rating ([4]; Rate 0.2500 kg/ha): 4.0
SAGPY herbicidal effect rating (Sagittaria pygmaea, L.; Rate 0.0313 kg/ha): 0.0
SAGPY herbicidal effect rating (Sagittaria pygmaea, L.; Rate 0.0625 kg/ha): 0.0
SAGPY herbicidal effect rating (Sagittaria pygmaea, L.; Rate 0.1250 kg/ha): 0.0
SAGPY herbicidal effect rating (Sagittaria pygmaea, L.; Rate 0.2500 kg/ha): 0.0

CCOc1ccc2sc(S(=O)(=O)NC(=O)COc3ccc(C)cc3-c3nsc4ccc(-n5c(=O)cc(C(F)(F)F)n(C)c5=O)cc34)nc2c1 [Example 289, Acetamide, 2-{{2-{5-[3,6-dihydro-3-methyl-2,6-dioxo-4-(trifluoromethyl)-1(2H)-pyrimidinyl]-1,2-benzisothiazol-3-yl}-p-tolyl}oxy}-N-[(5-ethoxybenzothiazol-2-yl)sulfonyl]-]
ORYSAT herbicidal effect rating ([1]; Rate 0.0320 kg/ha): 0.0
ORYSAT herbicidal effect rating ([1]; Rate 0.0620 kg/ha): 0.0
ORYSAT herbicidal effect rating ([1]; Rate 0.1250 kg/ha): 0.0
ORYSAT herbicidal effect rating ([1]; Rate 0.2500 kg/ha): 0.0
MOOVA herbicidal effect rating ([2]; Rate 0.0320 kg/ha): 0.0
MOOVA herbicidal effect rating ([2]; Rate 0.0620 kg/ha): 0.0
MOOVA herbicidal effect rating ([2]; Rate 0.1250 kg/ha): 9.0
MOOVA herbicidal effect rating ([2]; Rate 0.2500 kg/ha): 9.0
CYPIR herbicidal effect rating (Cyperus iria; Rate 0.0320 kg/ha): 0.0
CYPIR herbicidal effect rating (Cyperus iria; Rate 0.0620 kg/ha): 0.0
CYPIR herbicidal effect rating (Cyperus iria; Rate 0.1250 kg/ha): 9.0
CYPIR herbicidal effect rating (Cyperus iria; Rate 0.2500 kg/ha): 9.0
CYPSE herbicidal effect rating ([3]; Rate 0.0320 kg/ha): 0.0
CYPSE herbicidal effect rating ([3]; Rate 0.0620 kg/ha): 0.0
CYPSE herbicidal effect rating ([3]; Rate 0.1250 kg/ha): 0.0
CYPSE herbicidal effect rating ([3]; Rate 0.2500 kg/ha): 0.0
ECHORC herbicidal effect rating ([4]; Rate 0.0320 kg/ha): 0.0
ECHORC herbicidal effect rating ([4]; Rate 0.0620 kg/ha): 2.0
ECHORC herbicidal effect rating ([4]; Rate 0.1250 kg/ha): 3.0
ECHORC herbicidal effect rating ([4]; Rate 0.2500 kg/ha): 4.0
SAGPY herbicidal effect rating (Sagittaria pygmaea, L.; Rate 0.0320 kg/ha): 0.0
SAGPY herbicidal effect rating (Sagittaria pygmaea, L.; Rate 0.0620 kg/ha): 0.0
SAGPY herbicidal effect rating (Sagittaria pygmaea, L.; Rate 0.1250 kg/ha): 0.0
SAGPY herbicidal effect rating (Sagittaria pygmaea, L.; Rate 0.2500 kg/ha): 0.0

COCCOC(=O)COc1ccc(C)cc1-c1nsc2ccc(-n3c(=O)cc(C(F)(F)F)n(C)c3=O)cc12 [Example 191, 2-Methoxyethyl {{2-{5-[3,6-dihydro-3-methyl-2,6-dioxo-4-(trifluoromethyl)-1(2H)-pyrimidinyl]-1,2-benzisothiazol-3-yl}-p-tolyl}oxy}acetate]
herbicidal effect rating, ORYSAT (rice tolerance) ([1]; 0.0313 kg/ha): 1.0
herbicidal effect rating, ORYSAT (rice tolerance) ([1]; 0.0625 kg/ha): 2.0
herbicidal effect rating, ORYSAT (rice tolerance) ([1]; 0.1250 kg/ha): 3.0
herbicidal effect rating, ORYSAT (rice tolerance) ([1]; 0.2500 kg/ha): 6.0
herbicidal effect rating, MOOVA ([2]; 0.0313 kg/ha): 9.0
herbicidal effect rating, MOOVA ([2]; 0.0625 kg/ha): 9.0
herbicidal effect rating, MOOVA ([2]; 0.1250 kg/ha): 9.0
herbicidal effect rating, MOOVA ([2]; 0.2500 kg/ha): 9.0
herbicidal effect rating, CYPIR (Cyperus iria; 0.0313 kg/ha): 0.0
herbicidal effect rating, CYPIR (Cyperus iria; 0.0625 kg/ha): 0.0
herbicidal effect rating, CYPIR (Cyperus iria; 0.1250 kg/ha): 2.0
herbicidal effect rating, CYPIR (Cyperus iria; 0.2500 kg/ha): 4.0
herbicidal effect rating, CYPSE ([3]; 0.0313 kg/ha): 0.0
herbicidal effect rating, CYPSE ([3]; 0.0625 kg/ha): 0.0
herbicidal effect rating, CYPSE ([3]; 0.1250 kg/ha): 0.0
herbicidal effect rating, ECHORC ([4]; 0.0313 kg/ha): 0.0
herbicidal effect rating, ECHORC ([4]; 0.0625 kg/ha): 2.0
herbicidal effect rating, ECHORC ([4]; 0.1250 kg/ha): 4.0
herbicidal effect rating, ECHORC ([4]; 0.2500 kg/ha): 7.0
herbicidal effect rating, SAGPY (Sagittaria pygmaea, L.; 0.0313 kg/ha): 0.0
herbicidal effect rating, SAGPY (Sagittaria pygmaea, L.; 0.0625 kg/ha): 0.0
herbicidal effect rating, SAGPY (Sagittaria pygmaea, L.; 0.1250 kg/ha): 0.0
herbicidal effect rating, SAGPY (Sagittaria pygmaea, L.; 0.2500 kg/ha): 0.0
